# Values of other authors as cited in patent US6812249B2, “Process for preparing a 3-hydroxy-3-methylbutyrate amino acid salt and method of use” (priority 2003, dated 2004).
# Settings: experienced weight trained athletes; oral supplementation for 6 weeks or 28 days
structure (smiles),measurement,value
CC(C)(O)CC(=O)[O-].CC(C)(O)CC(=O)[O-].[Ca+2] [HMB calcium salt],"alteration in muscle size, fat mass, or strength variables","no alteration in muscle size, fat mass, or strength variables"
